pEC50: −log10 of the molar value. Peptide text beside a SMILES is read from it.
Key:
FPR2 = molecular target: T1, FPR2 (Homo sapiens, UniProt P25090); experiment: Change in calcium activity by peptide (Fura-2) in RBL cells overexpressing FPR2; format: cell-based; conditions: calcium activity (Fura-2), graded per Table 3, read-out: EC50 for [Ca^2+] FPR2
T1 construct: expressed in transfected cells; host or cells: RBL cells (RBL-FPR2)
T1 sequence (P25090 1-351): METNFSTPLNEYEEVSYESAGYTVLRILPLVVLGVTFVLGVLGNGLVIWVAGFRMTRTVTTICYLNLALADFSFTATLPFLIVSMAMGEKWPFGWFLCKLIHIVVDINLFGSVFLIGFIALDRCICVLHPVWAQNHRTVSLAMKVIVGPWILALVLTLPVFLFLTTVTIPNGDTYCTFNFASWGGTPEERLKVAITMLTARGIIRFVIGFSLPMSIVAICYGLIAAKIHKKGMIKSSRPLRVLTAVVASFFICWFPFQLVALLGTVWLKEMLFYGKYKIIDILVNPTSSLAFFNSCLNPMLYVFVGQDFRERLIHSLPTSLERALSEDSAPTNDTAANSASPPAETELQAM
Procedure: The present inventors observed changes in calcium ion permeability to confirm whether the immunomodulatory peptide candidates prepared according to one example of the present invention activate the immune function of a living organism. Specifically, the concentration of calcium ions in cells was measured to confirm whether the peptides activate FPR2.
A peptide dissolved in water or 50% DMSO at a concentration of 0.5 mM was prepared by diluting it to an appropriate concentration in HBSS (Sigma, #55037C)+20 mM HEPES buffer.
In this experiment, the cells were cultured in DMEM (Lonza, #BE12-604F) containing 10% fetal bovine serum (FBS) and 1% penicillin-streptomycin under conditions of 37° C. and 5% CO2.
(§1) The day before measuring calcium activity, the cells were prepared at 3×10^5 cells per well in a 96-well flat clear bottom black plate (Costar, #3603). The prepared cells were treated with a Fura-2 QBT calcium kit (component A; Molecular Devices, #8197) at the same volume per well. After incubation at 37° C. for 1 hour, the cells were incubated in a dark room at room temperature for 30 minutes. After the Fura-2-treated cells, the prepared peptide, and a dedicated tip were placed at each section of FlexStation 3 Multi-Mode Microplate Reader (Molecular Devices, #Flex3), changes in calcium activity caused by the peptides were measured using SoftMax Pro 7 Software (Molecular Devices, #FLEX3-INSTALL-OS).

FPR1 = molecular target: T2, FPR1 (Homo sapiens, UniProt P21462); experiment: Change in calcium activity by peptide, FPR1 activation effect; format: cell-based; conditions: calcium activity (Fura-2), graded per Table 3, read-out: EC50 for [Ca^2+] FPR1
T2 sequence (P21462 1-350): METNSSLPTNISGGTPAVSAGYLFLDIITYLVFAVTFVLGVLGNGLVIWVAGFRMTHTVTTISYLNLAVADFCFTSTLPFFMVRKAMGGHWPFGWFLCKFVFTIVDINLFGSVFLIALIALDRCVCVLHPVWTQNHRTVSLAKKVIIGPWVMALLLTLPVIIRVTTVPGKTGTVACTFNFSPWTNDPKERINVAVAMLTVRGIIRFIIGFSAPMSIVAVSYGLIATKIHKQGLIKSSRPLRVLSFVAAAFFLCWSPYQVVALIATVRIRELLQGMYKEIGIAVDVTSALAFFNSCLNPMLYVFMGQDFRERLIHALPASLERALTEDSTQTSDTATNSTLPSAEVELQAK
Procedure: as §1, with “#FLEX3-INSTALL-OS). […]” for “#FLEX3-INSTALL-OS).”

SMILES	pEC50 (FPR2)	pEC50 (FPR1)
CSCC[C@H](NC(=O)[C@H](CCCNC(=N)N)NC(C)=O)C(=O)N[C@@H](CCCNC(=N)N)C(=O)N[C@@H](Cc1ccc(O)cc1)C(=O)N[C@@H](Cc1ccc(O)cc1)C(=O)N[C@@H](Cc1ccc(O)cc1)C(=O)N[C@H](CCSC)C(N)=O [Peptide 125] (HELM PEPTIDE1{[ac].R.M.R.Y.Y.Y.[dM].[am]}$$$$V2.0)	> 8.00	< 5.00
CCCCCCCC(=O)N[C@@H](Cc1c[nH]cn1)C(=O)N[C@@H](CCCCN)C(=O)N[C@@H](Cc1ccc(O)cc1)C(=O)N[C@@H](CCCCN)C(=O)N1CCC[C@H]1C(=O)N[C@H](CCSC)C(N)=O [Peptide 149] (HELM PEPTIDE1{[CCCCCCCC(=O)[*:2]].H.K.Y.K.P.[dM].[am]}$$$$V2.0)	> 8.00	< 5.00
CSCC[C@@H](NC(=O)[C@H](Cc1ccc(O)cc1)NC(=O)[C@H](CCCCN)NC(=O)[C@H](Cc1ccc(O)cc1)NC(=O)[C@H](CCCNC(=N)N)NC(=O)[C@H](Cc1c[nH]c2ccccc12)NC(=O)[C@@H](N)CCCNC(=N)N)C(N)=O [Peptide 32] (HELM PEPTIDE1{R.W.R.Y.K.Y.[dM].[am]}$$$$V2.0)	7.00 to 7.96	< 5.00
CCCCCCCC(=O)N[C@@H](CCCNC(=N)N)C(=O)N[C@@H](Cc1c[nH]c2ccccc12)C(=O)N[C@@H](CCCNC(=N)N)C(=O)N[C@@H](Cc1ccc(O)cc1)C(=O)N[C@@H](CCCCN)C(=O)N[C@@H](Cc1ccc(O)cc1)C(=O)N[C@H](CCSC)C(N)=O [Peptide 34] (HELM PEPTIDE1{[CCCCCCCC(=O)[*:2]].R.W.R.Y.K.Y.[dM].[am]}$$$$V2.0)	7.00 to 7.96	< 5.00
CSCC[C@H](NC(=O)[C@@H]1CCCN1)C(=O)N[C@@H](CCCNC(=N)N)C(=O)N[C@@H](Cc1ccc(O)cc1)C(=O)N[C@@H](CCCCN)C(=O)N1CCC[C@H]1C(=O)N[C@H](CCSC)C(N)=O [Peptide 62] (HELM PEPTIDE1{P.M.R.Y.K.P.[dM].[am]}$$$$V2.0)	> 8.00	< 5.00
CSCC[C@@H](NC(=O)[C@@H](NC(=O)[C@H](CCCCN)NC(=O)[C@H](Cc1ccc(O)cc1)NC(=O)[C@H](CCCCN)NC(=O)[C@@H]1CCCN1C(C)=O)C(C)C)C(N)=O [Peptide 139] (HELM PEPTIDE1{[ac].P.K.Y.K.V.[dM].[am]}$$$$V2.0)	> 8.00	< 5.00
CSCC[C@@H](NC(=O)[C@H](Cc1ccc(O)cc1)NC(=O)[C@H](CC(C)C)NC(=O)[C@H](Cc1ccc(O)cc1)NC(=O)[C@H](CCCNC(=N)N)NC(=O)[C@H](Cc1c[nH]c2ccccc12)NC(=O)[C@@H](N)CCCNC(=N)N)C(N)=O [Peptide 154] (HELM PEPTIDE1{R.W.R.Y.L.Y.[dM].[am]}$$$$V2.0)	> 8.00	< 5.00
CSCC[C@H](NC(=O)[C@H](Cc1c[nH]cn1)NC(C)=O)C(=O)N[C@@H](CCCNC(=N)N)C(=O)N[C@@H](Cc1ccc(O)cc1)C(=O)N[C@@H](Cc1c[nH]c2ccccc12)C(=O)N[C@@H](Cc1ccc(O)cc1)C(=O)N[C@H](CCSC)C(N)=O [Peptide 92] (HELM PEPTIDE1{[ac].H.M.R.Y.W.Y.[dM].[am]}$$$$V2.0)	> 8.00	< 5.00
CC[C@H](C)[C@H](N)C(=O)N[C@@H](CCCCN)C(=O)N[C@@H](Cc1ccc(O)cc1)C(=O)N[C@@H](CCCCN)C(=O)N1CCC[C@H]1C(=O)N[C@H](CCSC)C(N)=O [Peptide 142] (HELM PEPTIDE1{I.K.Y.K.P.[dM].[am]}$$$$V2.0)	> 8.00	< 5.00
CCCCCCCC(=O)N[C@@H](CCCNC(=N)N)C(=O)N[C@@H](CCSC)C(=O)N[C@@H](CCCNC(=N)N)C(=O)N[C@@H](Cc1ccc(O)cc1)C(=O)N[C@@H](Cc1c[nH]c2ccccc12)C(=O)N1CCC[C@H]1C(=O)N[C@H](CCSC)C(N)=O [Peptide 109] (HELM PEPTIDE1{[CCCCCCCC(=O)[*:2]].R.M.R.Y.W.P.[dM].[am]}$$$$V2.0)	> 8.00	5.00 to 6.00
CCCCCCCC(=O)N1CCC[C@H]1C(=O)N[C@@H](CCSC)C(=O)N[C@@H](CCCNC(=N)N)C(=O)N[C@@H](Cc1ccc(O)cc1)C(=O)N[C@@H](CCCCN)C(=O)N1CCC[C@H]1C(=O)N[C@H](CCSC)C(N)=O [Peptide 65] (HELM PEPTIDE1{[CCCCCCCC(=O)[*:2]].P.M.R.Y.K.P.[dM].[am]}$$$$V2.0)	> 8.00	< 5.00
CCCC(=O)N[C@@H](Cc1c[nH]cn1)C(=O)N[C@@H](CCCCN)C(=O)N[C@@H](Cc1ccc(O)cc1)C(=O)N[C@@H](CCCCN)C(=O)N1CCC[C@H]1C(=O)N[C@H](CCSC)C(N)=O [Peptide 148] (HELM PEPTIDE1{[CCCC(=O)[*:2]].H.K.Y.K.P.[dM].[am]}$$$$V2.0)	> 8.00	< 5.00
CCCCCCCC(=O)N[C@@H](CCCNC(=N)N)C(=O)N[C@@H](CCSC)C(=O)N[C@@H](CCCNC(=N)N)C(=O)N[C@@H](Cc1ccc(O)cc1)C(=O)N[C@@H](CCCCN)C(=O)N[C@H](C(=O)N[C@H](CCSC)C(N)=O)C(C)C [Peptide 8] (HELM PEPTIDE1{[CCCCCCCC(=O)[*:2]].R.M.R.Y.K.V.[dM].[am]}$$$$V2.0)	7.00 to 7.96	< 5.00
CCCC(=O)N[C@@H](Cc1c[nH]cn1)C(=O)N[C@@H](CCSC)C(=O)N[C@@H](CCCCN)C(=O)N[C@@H](Cc1ccc(O)cc1)C(=O)N[C@@H](CCCCN)C(=O)N[C@H](C(=O)N[C@H](CCSC)C(N)=O)C(C)C [Peptide 23] (HELM PEPTIDE1{[CCCC(=O)[*:2]].H.M.K.Y.K.V.[dM].[am]}$$$$V2.0)	> 8.00	< 5.00
CSCC[C@@H](NC(=O)[C@H](Cc1ccc(O)cc1)NC(=O)[C@H](Cc1ccc(O)cc1)NC(=O)[C@H](Cc1ccc(O)cc1)NC(=O)[C@H](CCCNC(=N)N)NC(=O)[C@H](Cc1c[nH]c2ccccc12)NC(=O)[C@@H](N)CCCNC(=N)N)C(N)=O [Peptide 123] (HELM PEPTIDE1{R.W.R.Y.Y.Y.[dM].[am]}$$$$V2.0)	> 8.00	< 5.00
CCCCCCCC(=O)N[C@@H](CCCNC(=N)N)C(=O)N[C@@H](CCSC)C(=O)N[C@@H](CCCNC(=N)N)C(=O)N[C@@H](Cc1ccc(O)cc1)C(=O)N[C@@H](CCCCN)C(=O)N1CCC[C@H]1C(=O)N[C@H](CCSC)C(N)=O [Peptide 53] (HELM PEPTIDE1{[CCCCCCCC(=O)[*:2]].R.M.R.Y.K.P.[dM].[am]}$$$$V2.0)	> 8.00	< 5.00
CSCC[C@H](N)C(=O)N[C@@H](CCCNC(=N)N)C(=O)N[C@@H](Cc1ccc(O)cc1)C(=O)N[C@@H](Cc1c[nH]c2ccccc12)C(=O)N1CCC[C@H]1C(=O)N[C@H](CCSC)C(N)=O [Peptide 110] (HELM PEPTIDE1{M.R.Y.W.P.[dM].[am]}$$$$V2.0)	> 8.00	6.00 to 7.00
CSCC[C@H](N)C(=O)N[C@@H](CCCNC(=N)N)C(=O)N[C@@H](Cc1ccc(O)cc1)C(=O)N[C@@H](CCCCN)C(=O)N1CCC[C@H]1C(=O)N[C@H](CCSC)C(N)=O [Peptide 54] (HELM PEPTIDE1{M.R.Y.K.P.[dM].[am]}$$$$V2.0)	> 8.00	< 5.00
CSCC[C@@H](NC(=O)[C@@H]1CCCN1C(=O)[C@H](CCCCN)NC(=O)[C@H](Cc1ccc(O)cc1)NC(=O)[C@H](CCCNC(=N)N)NC(=O)[C@H](Cc1c[nH]c2ccccc12)NC(C)=O)C(N)=O [Peptide 76] (HELM PEPTIDE1{[ac].W.R.Y.K.P.[dM].[am]}$$$$V2.0)	> 8.00	5.00 to 6.00
CCCCCCCC(=O)N[C@@H](Cc1c[nH]cn1)C(=O)N[C@@H](CCSC)C(=O)N[C@@H](CCCCN)C(=O)N[C@@H](Cc1ccc(O)cc1)C(=O)N[C@@H](CCCCN)C(=O)N[C@H](C(=O)N[C@H](CCSC)C(N)=O)C(C)C [Peptide 24] (HELM PEPTIDE1{[CCCCCCCC(=O)[*:2]].H.M.K.Y.K.V.[dM].[am]}$$$$V2.0)	> 8.00	< 5.00
